Test system: TNF-alpha release in THP-1 cells
Test: LPS-induced TNF-alpha release in THP-1 cells
Type: cell-based
Conditions: Homo sapiens, THP-1, LPS-stimulated THP-1 cells; read-out: 50% inhibition in the LPS-induced TNF-alpha release in THP-1 cells assay at concentrations within the range
Outline: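 Undifferentiated THP-1 monocytes (1×10^6 cells/ml, 1% FCS) preincubated 1 h at 37° C with compound (1×10^−9 to 1×10^−6 M, 0.3% DMSO), then stimulated with LPS (20 μg/ml) for 18 h. Supernatant TNF-alpha measured by sandwich ELISA (TMB read-out), interpolated from a log/log standard curve (0.125-16 ng/ml).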

Cc1ccc(-n2nc(C(C)(C)C)cc2NC(=O)Nc2ccc(CC3CCN(C(=O)Cc4ccc5c(c4)OCO5)CC3)cc2)cc1 [Compound A263, 1-{4-[1-(2-Benzo[1,3]dioxol-5-yl-acetyl)-piperidin-4-ylmethyl]-phenyl}-3-(5-tert-butyl-2-p-tolyl-2H-pyrazol-3-yl)-urea]
IC50: 10 to 500 nM

COc1cc(OC)cc(C(=O)N2CCC(Cc3ccc(NC(=O)Nc4cc(C(C)(C)C)nn4-c4ccc(C)cc4)cc3)CC2)c1 [Compound A266, 1-(5-tert-Butyl-2-p-tolyl-2H-pyrazol-3-yl)-3-{4-[1-(3,5-dimethoxy-benzoyl)-piperidin-4-ylmethyl]-phenyl}-urea]
IC50: 10 to 500 nM

Cc1ccc(-n2nc(C(C)(C)C)cc2NC(=O)Nc2ccc(CC3CCN(C(=O)c4cccc(C(C)C#N)c4)CC3)cc2)cc1 (centres unmarked) [Compound A272, 1-(5-tert-Butyl-2-p-tolyl-2H-pyrazol-3-yl)-3-(4-{1-[3-(cyano-methyl-methyl)-benzoyl]-piperidin-4-ylmethyl}-phenyl)-urea]
IC50: 10 to 500 nM

Cc1ccc(-n2nc(C(C)(C)C)cc2NC(=O)Nc2ccc(CC3CCN(C(=O)CCc4ccco4)CC3)cc2)cc1 [Compound A274, 1-(5-tert-Butyl-2-p-tolyl-2H-pyrazol-3-yl)-3-{4-[1-(3-furan-2-yl-propionyl)-piperidin-4-ylmethyl]-phenyl}-urea]
IC50: 10 to 500 nM

Cc1ccc(-n2nc(C(C)(C)C)cc2NC(=O)Nc2ccc(CC3CCN(C(=O)c4ccoc4)CC3)cc2)cc1 [Compound A286, 1-(5-tert-Butyl-2-p-tolyl-2H-pyrazol-3-yl)-3-{4-[1-(furan-3-carbonyl)-piperidin-4-ylmethyl]-phenyl}-urea]
IC50: 10 to 500 nM

COc1cccc(CC(=O)N2CCC(Cc3ccc(NC(=O)Nc4cc(C(C)(C)C)nn4-c4ccc(C)cc4)cc3)CC2)c1 [Compound A288, 1-(5-tert-Butyl-2-p-tolyl-2H-pyrazol-3-yl)-3-(4-{1-[2-(3-methoxy-phenyl)-acetyl]-piperidin-4-ylmethyl}-phenyl)-urea]
IC50: 10 to 500 nM

Cc1ccc(-n2nc(C(C)(C)C)cc2NC(=O)Nc2ccc(CC3CCN(C(=O)c4cc(C)c(C)o4)CC3)cc2)cc1 [Compound A298, 1-(5-tert-Butyl-2-p-tolyl-2H-pyrazol-3-yl)-3-{4-[1-(4,5-dimethyl-furan-2-carbonyl)-piperidin-4-ylmethyl]-phenyl}-urea]
IC50: 10 to 500 nM

Cc1ccc(-n2nc(C(C)(C)C)cc2NC(=O)Nc2ccc(CC3CCN(C(=O)c4ccc(-c5cnco5)cc4)CC3)cc2)cc1 [Compound A301, 1-(5-tert-Butyl-2-p-tolyl-2H-pyrazol-3-yl)-3-{4-[1-(4-oxazol-5-yl-benzoyl)-piperidin-4-ylmethyl]-phenyl}-urea]
IC50: 10 to 500 nM

Cc1ccc(-n2nc(C(C)(C)C)cc2NC(=O)Nc2ccc(CC3CCN(C(=O)c4ccc(OC(F)F)cc4)CC3)cc2)cc1 [Compound A306, 1-(5-tert-Butyl-2-p-tolyl-2H-pyrazol-3-yl)-3-{4-[1-(4-difluoromethoxy-benzoyl)-piperidin-4-ylmethyl]-phenyl}-urea]
IC50: 10 to 500 nM

Cc1ccc(-n2nc(C(C)(C)C)cc2NC(=O)Nc2ccc(CC3CCN(C(=O)c4ccc(N)c(OC(F)(F)F)c4)CC3)cc2)cc1 [Compound A309, 1-{4-[1-(4-Amino-3-trifluoromethoxy-benzoyl)-piperidin-4-ylmethyl]-phenyl}-3-(5-tert-butyl-2-p-tolyl-2H-pyrazol-3-yl)-urea]
IC50: 10 to 500 nM

Cc1ccc(-n2nc(C(C)(C)C)cc2NC(=O)Nc2ccc(CC3CCN(C(=O)Cc4ccc(F)cc4)CC3)cc2)cc1 [Compound A314, 1-(5-tert-Butyl-2-p-tolyl-2H-pyrazol-3-yl)-3-(4-{1-[2-(4-fluoro-phenyl)-acetyl]-piperidin-4-ylmethyl}-phenyl)-urea]
IC50: 10 to 500 nM

Cc1ccc(-n2nc(C(C)(C)C)cc2NC(=O)Nc2ccc(CC3CCN(C(=O)c4ccc(CO)cc4)CC3)cc2)cc1 [Compound A315, 1-(5-tert-Butyl-2-p-tolyl-2H-pyrazol-3-yl)-3-{4-[1-(4-hydroxymethyl-benzoyl)-piperidin-4-ylmethyl]-phenyl}-urea]
IC50: 10 to 500 nM

COc1ccc(CC(=O)N2CCC(Cc3ccc(NC(=O)Nc4cc(C(C)(C)C)nn4-c4ccc(C)cc4)cc3)CC2)cc1 [Compound A319, 1-(5-tert-Butyl-2-p-tolyl-2H-pyrazol-3-yl)-3-(4-{1-[2-(4-methoxy-phenyl)-acetyl]-piperidin-4-ylmethyl}-phenyl)-urea]
IC50: 10 to 500 nM

Cc1ccc(-n2nc(C(C)(C)C)cc2NC(=O)Nc2ccc(CC3CCN(C(=O)c4cnn(-c5ccccc5)c4C)CC3)cc2)cc1 [Compound A331, 1-(5-tert-Butyl-2-p-tolyl-2H-pyrazol-3-yl)-3-{4-[1-(5-methyl-1-phenyl-1H-pyrazole-4-carbonyl)-piperidin-4-ylmethyl]-phenyl}-urea]
IC50: 10 to 500 nM

Cc1ccc(-n2nc(C(C)(C)C)cc2NC(=O)Nc2ccc(CC3CCN(C(=O)c4ccc(N)nc4)CC3)cc2)cc1 [Compound A331A, 1-{4-[1-(6-Amino-pyridine-3-carbonyl)-piperidin-4-ylmethyl]-phenyl}-3-(5-tert-butyl-2-p-tolyl-2H-pyrazol-3-yl)-urea]
IC50: 10 to 500 nM

Cc1ccc(-n2nc(C(C)(C)C)cc2NC(=O)Nc2ccc(CC3CCN(C(=O)c4ccc(Cl)nc4)CC3)cc2)cc1 [Compound A332, 1-(5-tert-Butyl-2-p-tolyl-2H-pyrazol-3-yl)-3-{4-[1-(6-chloro-pyridine-3-carbonyl)-piperidin-4-ylmethyl]-phenyl}-urea]
IC50: 10 to 500 nM

Cc1ccc(-n2nc(C(C)(C)C)cc2NC(=O)Nc2ccc(CC3CCN(C(=O)c4ccc5ncsc5c4)CC3)cc2)cc1 [Compound A338, 1-{4-[1-(Benzothiazole-6-carbonyl)-piperidin-4-ylmethyl]-phenyl}-3-(5-tert-butyl-2-p-tolyl-2H-pyrazol-3-yl)-urea]
IC50: 10 to 500 nM

CCCC(=O)N1CCC(Cc2ccc(NC(=O)Nc3cc(C(C)(C)C)nn3-c3ccc(C)cc3)cc2)CC1 [Compound A343, 1-(5-tert-Butyl-2-p-tolyl-2H-pyrazol-3-yl)-3-[4-(1-butyryl-piperidin-4-ylmethyl)-phenyl]-urea]
IC50: 10 to 500 nM

Cc1ccc(-n2nc(C(C)(C)C)cc2NC(=O)Nc2ccc(CC3CCN(C(=O)CC4CCCC4)CC3)cc2)cc1 [Compound A349, 1-(5-tert-Butyl-2-p-tolyl-2H-pyrazol-3-yl)-3-{4-[1-(2-cyclopentyl-acetyl)-piperidin-4-ylmethyl]-phenyl}-urea]
IC50: 10 to 500 nM

Cc1ccc(-n2nc(C(C)(C)C)cc2NC(=O)Nc2ccc(CC3CCN(C(=O)CCc4ccccc4)CC3)cc2)cc1 [Compound A354, 1-(5-tert-Butyl-2-p-tolyl-2H-pyrazol-3-yl)-3-{4-[1-(3-phenyl-propionyl)-piperidin-4-ylmethyl]-phenyl}-urea]
IC50: 10 to 500 nM

Cc1ccc(-n2nc(C(C)(C)C)cc2NC(=O)Nc2ccc(CC3CCN(C(=O)Cc4c[nH]c5ccccc45)CC3)cc2)cc1 [Compound A358, 1-(5-tert-Butyl-2-p-tolyl-2H-pyrazol-3-yl)-3-{4-[1-(2-1H-indol-3-yl-acetyl)-piperidin-4-ylmethyl]-phenyl}-urea]
IC50: 10 to 500 nM

Cc1ccc(-n2nc(C(C)(C)C)cc2NC(=O)Nc2ccc(CC3CCN(C(=O)c4ccc5cc[nH]c5c4)CC3)cc2)cc1 [Compound A362, 1-(5-tert-Butyl-2-p-tolyl-2H-pyrazol-3-yl)-3-{4-[1-(1H-indole-6-carbonyl)-piperidin-4-ylmethyl]-phenyl}-urea]
IC50: 10 to 500 nM

Cc1ccc(-n2nc(C(C)(C)C)cc2NC(=O)Nc2ccc(CC3CCN(C(=O)c4cccc(Nc5nc(C)cc(C)n5)c4)CC3)cc2)cc1 [Compound A371, 1-(5-tert-Butyl-2-p-tolyl-2H-pyrazol-3-yl)-3-(4-{1-[3-(4,6-dimethyl-pyrimidin-2-ylamino)-benzoyl]-piperidin-4-ylmethyl}-phenyl)-urea]
IC50: 10 to 500 nM

Cc1ccc(-n2nc(C(C)(C)C)cc2NC(=O)Nc2ccc(CC3CCN(C(=O)c4ccccn4)CC3)cc2)cc1 [Compound A380, 1-(5-tert-Butyl-2-p-tolyl-2H-pyrazol-3-yl)-3-{4-[1-(pyridine-2-carbonyl)-piperidin-4-ylmethyl]-phenyl}-urea]
IC50: 10 to 500 nM

Cc1ccc(-n2nc(C(C)(C)C)cc2NC(=O)Nc2ccc(CC3CCN(C(=O)c4ccc5ccccc5n4)CC3)cc2)cc1 [Compound A383, 1-(5-tert-Butyl-2-p-tolyl-2H-pyrazol-3-yl)-3-{4-[1-(quinoline-2-carbonyl)-piperidin-4-ylmethyl]-phenyl}-urea]
IC50: 10 to 500 nM

Cc1ccc(-n2nc(C(C)(C)C)cc2NC(=O)Nc2ccc(CC3CCN(C(=O)c4cnc5ccccc5c4)CC3)cc2)cc1 [Compound A384, 1-(5-tert-Butyl-2-p-tolyl-2H-pyrazol-3-yl)-3-{4-[1-(quinoline-3-carbonyl)-piperidin-4-ylmethyl]-phenyl}-urea]
IC50: 10 to 500 nM

Cc1ccc(-n2nc(C(C)(C)C)cc2NC(=O)Nc2ccc(CC3CCN(C(=O)c4ccnc5ccccc45)CC3)cc2)cc1 [Compound A385, 1-(5-tert-Butyl-2-p-tolyl-2H-pyrazol-3-yl)-3-{4-[1-(quinoline-4-carbonyl)-piperidin-4-ylmethyl]-phenyl}-urea]
IC50: 10 to 500 nM

Cc1ccc(-n2nc(C(C)(C)C)cc2NC(=O)Nc2ccc(CC3CCN(C(=O)Cc4cccs4)CC3)cc2)cc1 [Compound A388, 1-(5-tert-Butyl-2-p-tolyl-2H-pyrazol-3-yl)-3-{4-[1-(2-thiophen-2-yl-acetyl)-piperidin-4-ylmethyl]-phenyl}-urea]
IC50: 10 to 500 nM

Cc1ccc(-n2nc(C(C)(C)C)cc2NC(=O)Nc2ccc(CC3CCN(C(=O)Cc4ccsc4)CC3)cc2)cc1 [Compound A389, 1-(5-tert-Butyl-2-p-tolyl-2H-pyrazol-3-yl)-3-{4-[1-(2-thiophen-3-yl-acetyl)-piperidin-4-ylmethyl]-phenyl}-urea]
IC50: 10 to 500 nM
